From US20050113284A1, “Drug for regenerating tissue and vessel and method therefor” (priority 2001, published 2005)

Assays:
[1] = test system: C-terminal region of human MERMUC (bait-2, bait-3); experiment: Yeast two hybrid screening of human kidney cDNA library with MERMUC baits; type: binding; conditions: bait-2 = 123 amino acid portion of the C-terminus of human MERMUC
Method: Specifically, yeast two hybrid system (Proc. Natl. Acad. Sci. USA., 1991, Vol.88, p.9578-9582) was performed to screen a human kidney cDNA library using cDNA corresponding to the C-terminal region of the human MERMUC as the bait (that is, fishing bait).
Two kinds of bait (bait-2 and bait-3) were designed using each of Ex.-2 and Ex.-3 as the core. Bait-2 corresponds to a 123 amino acid portion of the C-terminus (bait-2) and bait-3 corresponds to the 65 C-terminal amino acids (bait-3).
Each bait vector was obtained by inserting each DNA fragment obtained by digesting each of the PCR products with the restriction enzymes EcoRI and SalI into the EcoRI/SalI site of pGBKT7 vector (leucine biosynthesis gene as a marker; CLONTECH). In yeast, the gene within the vector is produced as a fusion protein ([fusion protein A]) with the DNA binding region (GAL4-DB) of the yeast transcription factor GAL4.
On the other hand, each cDNA of the human kidney derived cDNA library (CLONTECH) that is used for the screening with the bait vector is inserted in pADK vector (tryptophan biosynthesis gene as a marker). Therefore, proteins produced through the expression of each of these cDNAs in yeast are produced as a fusion protein ([fusion protein B]) with the GAL4 transcriptional activation region (GAL4-AD). […]

hepatocytes = experiment: Growth factor dependent proliferation of primary hepatocytes of MERMUC-Tg and non-Tg mice; type: cell-based, mouse; conditions: 24 hr
Method: Primary cell culture of hepatocytes from liver cells obtained from the liver of each of the MERMUC-Tg mice (8 weeks old, 4 mice) and non-Tg mice (8 weeks old, 4 mice) was prepared by collagenase treatment according to the method of Berry and Friend, and Seglen et al. (Berry & Friend, J. Cell Biol., 1969, Vol. 43, p. 506-520; Seglen et al., Methods in Cell Biol., 1976, Vol. 13, p. 29-83).
Each of the obtained hepatocytes (2×10^3 cells) was cultured in serum-free media for 15 hr, HGF (0, 1 or 3 ng/ml) was added to the media to induce HGF-dependent cell proliferation, and was further cultured. Similarly, cultivation was performed by adding epidermal growth factor (EGF; 0, 1, or 10 ng/ml) in place of HGF to the culture as a control.
After 24 hr from HGF addition, cell numbers were counted using Cell Count Reagent SF (Nacalai tesque) according to the experimental protocol provided with the reagent to calculate the relative cell proliferation rate after HGF (or EGF) addition. Tests were conducted in triplicate.

MERMUC = MERMUC protein phosphorylation in [32P]-labelled MERMUC/293 cells; type: cell-based, human; conditions: for phosphorylation of MERMUC upon growth factor stimulation: MERMUC overexpressing cells cultured without Dox, HGF 20ng/ml, 5 min
Method: After labeling the Tet-Off/MERMUC expressing recombinant cells (MERMUC/293 cells) produced above with (^32P] orthophosphate, the cells were stimulated with human recombinant HGF (20ng/ml; 5 min). Next, cell lysate was prepared by lysing cells according to conventional method. Anti-human MERMUC polyclonal antibody prepared as above (Example 2) was added to and reacted with the obtained cell lysate, bound to protein-G Sepharose, and then MERMUC protein and anti-MERMUC polyclonal antibody complex was precipitated by centrifugation.
The precipitate was extracted with 1% SDS and similar immunoprecipitation procedure was performed to reduce the background. The sample prepared by this procedure was separated by SDS-PAGE and analyzed by autoradiography.
Furthermore, MERMUC expression in the above mentioned recombinant cells was confirmed to be constant regardless of the presence or absence of HGF by Western blotting according to conventional method using anti-human MERMUC polyclonal antibody.
The following experiments were conducted similarly as described above: • 1) epidermal growth factor (EGF) was used in place of HGF; • 2) MERMUC expressing cells were treated with HGF signaling suppressor, PI3 kinase inhibitor (LY294002; 10 μM; CALBIOCHEM), before HGF stimulation; • 3) MERMUC expressing cells were treated with HGF signaling suppressor, MEK 1/2 inhibitor (U0126; 10 μM; CALBIOCHEM), before HGF stimulation; • 4) MERMUC expressing cells were treated with PI3 kinase inhibitor (LY294002; 10 μM) before EGF stimulation; and • 5) MERMUC expressing cells were treated with MEK 1/2 inhibitor (U0126; 10 μM) before EGF stimulation.

liver = experiment: HGF-dependent liver enlargement in MERMUC-Tg and non-Tg mice; type: in vivo; conditions: human HGF expression plasmid 28 μg/mouse into tail vein, two days
From the text: It has been reported that HGF is transiently overexpressed in vivo by the injection of HGF expression plasmid DNA into the tail vein of normal mice, causing liver enlargement due to the enhancement of hepatocyte proliferation (Hepatology, 2001, Vol. 33, p848-859). Therefore, to validate the down-regulation activity of MERMUC on HGF receptor mediated signaling, the method in the above mentioned report was applied to MERMUC overexpressing transgenic mice (MERMUC-Tg; 7 weeks old; male; 23-33 g) produced in the previous Example, and the effect due to the expression of MERMUC on liver enlargement induced by HGF overexpression was examined. Human HGF expression plasmid (human HGF-cDNA in pcDNA3; Invitrogen) or plasmid pcDNA3 (mock) was injected into the tail vein of each of MERMUC-Tg mouse and littermate non-Tg mouse at a concentration of 28 μg/mouse (2.3 ml saline) within 5 to 10 seconds. The HGF level in serum of each of the mice was measured using a human HGF ELISA kit (Genzyme Techne) two days after the plasmid injection. The level of HGF production due to the administered plasmid in each animal was evaluated together with the changes in liver weight upon laparotomy.

[2] = molecular target: T1, HGF receptor c-Met β chain (Homo sapiens, UniProt P08581); experiment: Yeast two-hybrid binding of MERMUC bait proteins to c-Met prey (C-terminal 91 amino acids); conditions: prey clone No. 3-309 (C-terminal 91 amino acids of human c-Met)
T1 construct: expressed in transfected cells; host or cells: yeast AH109 strain (library prey plasmid, human kidney cDNA library, CLONTECH)
T1 sequence (P08581 1300-1390): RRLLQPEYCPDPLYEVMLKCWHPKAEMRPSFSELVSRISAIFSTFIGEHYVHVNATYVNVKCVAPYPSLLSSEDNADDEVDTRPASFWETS
Method: The present examination was performed using the previously reported yeast two-hybrid system (references are described above) according to conventional method and the experimental protocols provided with the reagents. […]
The binding ability of MERMUC bait protein derived from each of the bait vectors to the HGF receptor c-Met β chain was analyzed by the yeast two-hybrid system described above. […]
Each of the bait vectors was cointroduced into yeast AH109 strain with human HGF receptor c-Met prey vector (comprising DNA encoding the C-terminal 91 amino acids of the c-Met; Example 1). The binding ability of each of the bait proteins (randomly selected 10 amino acids of the human MERMUC C-terminal region) to the C-terminal region of human c-Met β chain was analyzed by the yeast two-hybrid system similar to the aforementioned Example.

Sequence of C-terminal region of human MERMUC (bait-2, bait-3) (Q8N307 587-709): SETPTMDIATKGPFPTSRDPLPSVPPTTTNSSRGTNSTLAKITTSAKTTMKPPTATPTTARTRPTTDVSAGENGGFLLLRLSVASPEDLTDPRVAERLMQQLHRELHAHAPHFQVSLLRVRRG

Molecule: clone No. 2-211: prey protein: C-terminal 56 amino acids (amino acids 448-503 of SEQ ID NO: 10) of human MERMUC (VSAGENGGFLLLRLSVASPEDLTDPRVAERLMQQLHRELHAHAPHFQVSLLRVRRG; listed as Homo sapiens)
- binding ability to the protein derived from bait-2 [1]: had binding ability

Molecule: EGF: epidermal growth factor, used as control in place of HGF
- EGF stimulated hepatocyte proliferation (hepatocytes; MERMUC-Tg and non-Tg hepatocytes, EGF 0, 1 or 10 ng/ml): dosage-dependent cell proliferation
- phosphorylation of MERMUC upon growth factor stimulation (MERMUC): did not show effect to increase phosphorylation of MERMUC

Molecule: N#CC(=C(/N)Sc1ccccc1N)/C(C#N)=C(/N)Sc1ccccc1N [MEK 1/2 inhibitor, U0126, reference compound]
- suppression of the enhancement of MERMUC phosphorylation (MERMUC; cells treated with inhibitor 10 μM before HGF stimulation): suppressed only in the cells treated with PI3 kinase inhibitor

Molecule: HGF: hepatocyte growth factor, ligand of c-Met; in b422 supplied by human HGF expression plasmid (human HGF-cDNA in pcDNA3)
- proliferation due to HGF stimulation of hepatocytes (hepatocytes; MERMUC-Tg derived hepatocytes compared with non-Tg, HGF 0, 1 or 3 ng/ml): significant decrease
- phosphorylation of MERMUC upon growth factor stimulation (MERMUC): strong signal band
- increase of the ratio of liver weight to body weight (liver; MERMUC-Tg mice): about 1.2 times
- increase of the ratio of liver weight to body weight (liver; non-Tg mice): about 1.6 times

Molecule: C53: MERMUC bait protein, C-terminal 53 amino acids of C260; amino acids 451-503 of SEQ ID NO: 10 (GENGGFLLLRLSVASPEDLTDPRVAERLMQQLHRELHAHAPHFQVSLLRVRRG; listed as Homo sapiens)
- binding activity to the HGF receptor c-Met β chain [2]: possessed the binding activity
